Assay results as given in PubChem BioAssay (NCI).
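Briefly, cells in 96-well plates were exposed to five compound concentrations for 48 h, and endpoints were estimated by linear interpolation. GI50 marks 50% less growth. TGI marks complete inhibition of growth.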

What was measured:
Assay in all cases: growth of human tumour cells (NCI), 48 h
[1] = test system: SK-MEL-5 melanoma
[2] = test system: SF-268 CNS
[3] = test system: HCC-2998 colon
[4] = test system: TK-10 renal
[5] = test system: NCI-H226 lung
[6] = test system: OVCAR-3 ovarian
[7] = test system: NCI-H23 lung
[8] = test system: SNB-75 CNS
[9] = test system: MDA-MB-231 breast
[10] = test system: SF-539 CNS
[11] = test system: HS 578T breast
[12] = test system: HOP-62 NSCLC
[13] = test system: KM12 colon
[14] = test system: A549 NSCLC
[15] = test system: RXF 393 renal
[16] = test system: DU-145 prostate
[17] = test system: T-47D breast
[18] = test system: HT29 colon
[19] = test system: MOLT-4 leukemia
[20] = test system: U251 CNS
[21] = test system: HOP-92 NSCLC
[22] = test system: RPMI-8226 leukemia
[23] = test system: ACHN renal
[24] = test system: SR leukemia
[25] = test system: NCI/ADR-RES ovarian
[26] = test system: SK-MEL-2 melanoma
[27] = test system: HCT-116 colon
[28] = test system: EKVX NSCLC
[29] = test system: MCF7 breast
[30] = test system: UO-31 renal
[31] = test system: COLO 205 colon
[32] = test system: OVCAR-4 ovarian
[33] = test system: SNB-19 CNS
[34] = test system: CAKI-1 renal
[35] = test system: HCT-15 colon
[36] = test system: SK-OV-3 ovarian
[37] = test system: 786-0 renal
[38] = test system: MDA-MB-435
[39] = test system: MALME-3M melanoma
[40] = test system: NCI-H460 lung
[41] = test system: HL-60(TB) leukemia
[42] = test system: OVCAR-8 ovarian
[43] = test system: NCI-H522 lung
[44] = test system: UACC-257 melanoma
[45] = test system: PC-3 prostate
[46] = test system: BT-549 breast
[47] = test system: M14 melanoma
[48] = test system: OVCAR-5 ovarian
[49] = test system: SW-620 colon
[50] = test system: A498 renal
[51] = test system: UACC-62 melanoma
[52] = test system: SF-295 CNS
[53] = test system: SK-MEL-28 melanoma
[54] = test system: SN12C renal
[55] = test system: LOX IMVI melanoma

N[C@]1(C(=O)O)C[C@@H]2C(Br)=NO[C@@H]2C1
TGI [1]: > 100 µM | TGI [2]: > 100 µM | TGI [3]: > 100 µM | TGI [4]: > 100 µM | TGI [5]: > 100 µM | TGI [6]: > 100 µM | TGI [7]: > 100 µM | TGI [8]: > 100 µM | TGI [9]: > 100 µM | TGI [10]: > 100 µM | TGI [11]: > 100 µM | TGI [12]: > 100 µM | TGI [13]: > 100 µM | TGI [14]: > 100 µM | TGI [15]: > 100 µM | TGI [16]: > 100 µM | TGI [17]: > 100 µM | TGI [18]: > 100 µM | TGI [19]: > 100 µM | TGI [20]: > 100 µM | TGI [21]: > 100 µM | TGI [22]: > 100 µM | TGI [23]: > 100 µM | TGI [24]: > 100 µM | TGI [25]: > 100 µM | TGI [26]: > 100 µM | TGI [27]: > 100 µM | TGI [28]: > 100 µM | TGI [29]: > 100 µM | TGI [30]: > 100 µM | TGI [31]: > 100 µM | TGI [32]: > 100 µM | TGI [33]: > 100 µM | TGI [34]: > 100 µM | TGI [35]: > 100 µM | TGI [36]: > 100 µM | TGI [37]: > 100 µM | TGI [38]: > 100 µM | TGI [39]: > 100 µM | TGI [40]: > 100 µM | TGI [41]: > 100 µM | TGI [42]: > 100 µM | TGI [43]: > 100 µM | TGI [44]: > 100 µM | TGI [45]: > 100 µM | TGI [46]: > 100 µM | TGI [47]: > 100 µM | TGI [48]: > 100 µM | TGI [49]: > 100 µM | TGI [50]: > 100 µM | TGI [51]: > 100 µM | TGI [52]: > 100 µM

NCCCCCCCCCCn1c2c(c3ccccc3c1=O)C(=O)c1ccccc1-2
GI50 [1]: 8.25 µM | TGI [1]: 21.3 µM | GI50 [2]: 11.7 µM | TGI [2]: 50.3 µM | GI50 [3]: 6.14 µM | TGI [3]: 19 µM | GI50 [4]: 6.55 µM | TGI [4]: 20.9 µM | GI50 [5]: 20.4 µM | TGI [5]: 47.1 µM | GI50 [6]: 10.8 µM | TGI [6]: 27.3 µM | GI50 [7]: 14.9 µM | TGI [7]: 32.6 µM | GI50 [8]: 5.01 µM | TGI [8]: 17.5 µM | GI50 [9]: 5.22 µM | TGI [9]: 18 µM | GI50 [53]: 3.97 µM | TGI [53]: 14.8 µM | GI50 [10]: 1.83 µM | TGI [10]: 3.52 µM | GI50 [11]: 13.6 µM | TGI [11]: 36.4 µM | GI50 [12]: 4.84 µM | TGI [12]: 17.3 µM | GI50 [13]: 5.85 µM | TGI [13]: 21.9 µM | GI50 [14]: 11.5 µM | TGI [14]: 37 µM | GI50 [15]: 15.2 µM | TGI [15]: 36.7 µM | GI50 [54]: 3.32 µM | TGI [54]: 9.41 µM | GI50 [16]: 3.46 µM | TGI [16]: 11.2 µM | GI50 [17]: 11.4 µM | TGI [17]: 39 µM | GI50 [18]: 1.89 µM | TGI [18]: 3.75 µM | GI50 [19]: 1.81 µM | TGI [19]: 3.32 µM | GI50 [20]: 10.1 µM | TGI [20]: 24.7 µM | GI50 [21]: 2.74 µM | TGI [21]: 7.49 µM | GI50 [22]: 2.16 µM | TGI [22]: 4.47 µM | GI50 [23]: 6 µM | TGI [23]: 18.2 µM | GI50 [24]: 1.86 µM | TGI [24]: 3.53 µM | GI50 [25]: 10.9 µM | TGI [25]: 28.5 µM | GI50 [26]: 2.04 µM | TGI [26]: 4.41 µM | GI50 [27]: 2.74 µM | TGI [27]: 7.66 µM | GI50 [55]: 2.65 µM | TGI [55]: 7.06 µM | GI50 [28]: 17.3 µM | TGI [28]: 37.8 µM | GI50 [29]: 4.67 µM | TGI [29]: 20.2 µM | GI50 [30]: 6.16 µM | TGI [30]: 18.8 µM | GI50 [31]: 3.58 µM | TGI [31]: 12.7 µM | GI50 [32]: 8.7 µM | TGI [32]: 25.1 µM | GI50 [33]: 8.31 µM | TGI [33]: 28 µM | GI50 [34]: 14.7 µM | TGI [34]: 32.1 µM | GI50 [35]: 4.51 µM | TGI [35]: 16.9 µM | GI50 [36]: 18.7 µM | TGI [36]: 35 µM | GI50 [37]: 4.8 µM | TGI [37]: 19.4 µM | GI50 [38]: 11.8 µM | TGI [38]: 27.9 µM | GI50 [39]: 13.2 µM | TGI [39]: 33.9 µM | GI50 [40]: 4.06 µM | TGI [40]: 18.5 µM | GI50 [41]: 1.77 µM | TGI [41]: 3.44 µM | GI50 [42]: 3.34 µM | TGI [42]: 56.9 µM | GI50 [43]: 2.84 µM | TGI [43]: 8.4 µM | GI50 [44]: 21.2 µM | TGI [44]: 44.8 µM | GI50 [45]: 2.16 µM | TGI [45]: 4.54 µM | GI50 [46]: 5.64 µM | TGI [46]: 19.8 µM | GI50 [47]: 4.72 µM | TGI [47]: 16 µM | GI50 [48]: 4.52 µM | TGI [48]: 15.3 µM | GI50 [49]: 2.33 µM | TGI [49]: 5.5 µM | GI50 [50]: 13.1 µM | TGI [50]: 33.7 µM | GI50 [51]: 13.7 µM | TGI [51]: 29.4 µM | GI50 [52]: 6.48 µM | TGI [52]: 22 µM
